Data on 16 compounds can be found in patent US8404836B2, “3-phenyl acrylic acid compound activators of type PPAR receptors and pharmaceutical/cosmetic compositions comprised thereof” (Galderma Research & Development, priority 2007, dated 2013).

In one series the target is T1, PPARα (Homo sapiens, UniProt Q07869).
T1 sequence (Q07869 200-468 limits assumed): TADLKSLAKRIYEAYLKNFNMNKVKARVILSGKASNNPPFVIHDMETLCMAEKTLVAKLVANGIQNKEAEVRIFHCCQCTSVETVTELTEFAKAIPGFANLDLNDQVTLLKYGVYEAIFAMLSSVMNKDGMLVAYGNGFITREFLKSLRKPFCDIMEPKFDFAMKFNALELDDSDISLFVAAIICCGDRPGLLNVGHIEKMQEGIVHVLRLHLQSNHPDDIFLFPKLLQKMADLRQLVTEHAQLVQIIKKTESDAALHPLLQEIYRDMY
Kind of series: PPAR transactivation test in crossed curves (HeLN luciferase reporter), PPARα. Type of series: cell-based. The conditions noted are these: HeLN cells stably transfected with Gal-hPPARα and luciferase reporter; crossed curves vs reference agonist, Schild regression; read-out: PPAR alpha Kd app. The protocol:
(§1) Activation of the PPAR receptors by an agonist (activator) in HeLN cells leads to the expression of a reporter gene, luciferase, which, in the presence of a substrate, generates light. The modulation of the PPAR receptors is measured by quantifying the luminescence produced after incubation of the cells in the presence of a reference agonist. The ligands will displace the agonist from its site. The activity is measured by quantifying the light produced. This measurement makes it possible to determine the modulating activity of the compounds according to the invention by determining the constant representing the affinity of the molecule for the PPAR receptor. This value, which can fluctuate according to the basal activity and expression of the receptor, is called apparent Kd (KdApp, nM).
(§2) To determine this constant, “crossed curves” of the test product versus a reference agonist are carried out in a 96-well plate: 10 concentrations of the test product plus a 0 concentration are arranged in rows, and 7 concentrations of the agonist plus a 0 concentration are arranged in columns. This is 88 measurement points for 1 product and 1 receptor. The 8 remaining wells are used for repeatability controls.
(§3) Measurements are also carried out for the total agonist controls with the same products.
(§4) The HeLN cell lines used are stable transfectants containing the plasmids ERE-βGlob-Luc-SV-Neo (reporter gene) and PPAR (α, δ, γ) Gal-hPPAR. These cells are sown in 96-well plates at a rate of 10 000 cells per well in 100 μl of DMEM medium without phenol red and supplemented with 10% of delipidated calf serum. The plates are then incubated at 37° C., 7% CO2 for 16 hours.
(§5) The various dilutions of the test products and of the reference ligand are added at a rate of 5 μl per well. The plates are then incubated for 18 hours at 37° C., 7% CO2.
(§6) The culture medium is removed by inverting and 100 μl of a 1:1 mixture PBS/Luciferine is added to each well. After 5 minutes, the plates are read with the luminescence reader.
(§7) These AC50 are used for calculating the Schild regression by plotting a straight line corresponding to the Schild equation (“Quantitation in receptor pharmacology” Terry P. Kenakin, Receptors and Channels, 2001, 7, 371-385) which provides the values of Kd app (in nM).
(In general: A reporter such as luciferase makes a cellular process visible.)

The target of another series is T2, PPARγ (Homo sapiens, UniProt P37231).
T2 sequence (P37231 238-505 limits assumed): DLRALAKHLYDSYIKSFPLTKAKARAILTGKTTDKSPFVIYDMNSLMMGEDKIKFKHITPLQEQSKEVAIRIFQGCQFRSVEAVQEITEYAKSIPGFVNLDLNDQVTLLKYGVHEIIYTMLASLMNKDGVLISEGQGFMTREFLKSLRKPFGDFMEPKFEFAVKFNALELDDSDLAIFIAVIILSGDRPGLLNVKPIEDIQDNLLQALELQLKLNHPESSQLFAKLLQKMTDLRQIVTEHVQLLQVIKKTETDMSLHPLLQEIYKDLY
In words: PPAR transactivation test in crossed curves (HeLN luciferase reporter), PPARγ. The conditions noted are these: HeLN cells stably transfected with Gal-hPPARγ and luciferase reporter; crossed curves vs reference agonist, Schild regression; read-out: PPAR gamma Kd app. The format is cell-based. The procedure:
as §1, §2, §3, §4, §5, §6

In a further series the target is T3, PPARδ (Homo sapiens, UniProt Q03181).
T3 sequence (Q03181 171-441 limits assumed): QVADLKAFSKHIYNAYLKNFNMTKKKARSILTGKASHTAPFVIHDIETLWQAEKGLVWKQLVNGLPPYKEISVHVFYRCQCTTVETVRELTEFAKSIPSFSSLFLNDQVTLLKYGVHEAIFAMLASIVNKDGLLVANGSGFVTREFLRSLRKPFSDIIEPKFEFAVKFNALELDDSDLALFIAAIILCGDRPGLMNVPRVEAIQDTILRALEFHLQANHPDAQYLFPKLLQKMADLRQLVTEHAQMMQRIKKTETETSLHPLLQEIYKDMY
Kind of series: PPAR transactivation test in crossed curves (HeLN luciferase reporter), PPARδ. The format is cell-based. The conditions noted are these: HeLN cells stably transfected with Gal-hPPARδ and luciferase reporter; crossed curves vs reference agonist, Schild regression; read-out: PPARs delta Kd app. The protocol:
as §1, §2, §3, §4, §5, §6, §7

Broadly, the melting point is the temperature, or range, at which the solid turns liquid. Consider `CCCCCOc1ccc(CCOc2ccc(/C=C(\OCC)C(=O)O)cc2OCCCC)cc1F` [Example 12, (Z)-3-{3-butoxy-4-[2-(3-fluoro-4-pentyloxy-phenyl)-ethoxy]-phenyl}-2-ethoxy-acrylic acid], for which the melting point worked out at 102 °C.

As to `CCO/C(=C\c1ccc(OCCc2ccc(OCC)cc2)c(OC)c1)C(=O)O` [Example 19, (Z)-2-ethoxy-3-{4-[2-(4-ethoxy-phenyl)-ethoxy]-3-methoxy-phenyl}-acrylic acid], the melting point was 121 °C.

On to `CCCCOc1cc(/C=C(\OCC)C(=O)O)ccc1OCCc1ccc(OS(C)(=O)=O)cc1OC` [Example 10, (Z)-3-{3-butoxy-4-[2-(4-methanesulfonyloxy-2-methoxy-phenyl)-ethoxy]-phenyl}-2-ethoxy-acrylic acid], for which the melting point is 112 °C.

For `CCCCOc1cc(/C=C(\OCC)C(=O)O)ccc1OCCc1ccc(OS(C)(=O)=O)c(OC)c1` [Example 7, (Z)-3-{3-butoxy-4-[2-(4-methanesulfonyloxy-3-methoxy-phenyl)-ethoxy]-phenyl}-2-ethoxy-acrylic acid], the melting point was determined as 97 °C. Also, on PPARα, the Kd was determined as 250 nM. Further, on PPARγ, the Kd worked out at 15 nM.

As to `CCCCOc1cc(/C=C(\OCC)C(=O)O)ccc1OCCc1ccc(N(C)S(C)(=O)=O)cc1` [Example 23, (Z)-3-(3-butoxy-4-{2-[4-(methanesulfonyl-methyl-amino)-phenyl]-ethoxy}-phenyl)-2-ethoxy-acrylic acid], the melting point was 112 °C.

For `CCCCOc1cc(/C=C(\OCC)C(=O)O)ccc1OCCc1ccc(OS(=O)(=O)CCCC)c(OC)c1` [Example 8, (Z)-3-(4-{2-[4-(butane-1-sulfonyloxy)-3-methoxy-phenyl]-ethoxy}-3-butoxy-phenyl)-2-ethoxy-acrylic acid], the Kd at PPARα amounted to 120 nM; on PPARδ, 2000 nM; at PPARγ, 15 nM.

In turn, `CCCCOc1cc(/C=C(\OCC)C(=O)O)ccc1OCCc1ccc(NS(=O)(=O)CCCC)cc1` [Example 22, (Z)-3-(4-{2-[4-(butane-1-sulfonylamino)-phenyl]-ethoxy}-3-butoxy-phenyl)-2-ethoxy-acrylic acid] showed a melting point of 164 °C.

In the case of `CCCCS(=O)(=O)Oc1ccc(CCOc2ccc(/C=C(\OCC)C(=O)O)cc2OC)cc1` [Example 1, (Z)-3-(4-{2-[4-(butane-1-sulfonyloxy)-phenyl]-ethoxy}-3-methoxy-phenyl)-2-ethoxy-acrylic acid], the melting point amounted to 94 °C. Besides, on PPARγ, the Kd was determined as 8 nM.

On to `CCCCOc1cc(/C=C(\OCC)C(=O)O)ccc1OCCc1ccc(OCC)c(F)c1` [Example 11, (Z)-3-{3-butoxy-4-[2-(4-ethoxy-3-fluoro-phenyl)-ethoxy]-phenyl}-2-ethoxy-acrylic acid], for which the melting point was 119 °C.

Consider `CCCCOc1cc(/C=C(\OCC)C(=O)O)ccc1OCCc1ccc(OS(C)(=O)=O)c(Cl)c1` [Example 16, (Z)-3-{3-butoxy-4-[2-(3-chloro-4-methanesulfonyloxy-phenyl)-ethoxy]-phenyl}-2-ethoxy-acrylic acid], for which the melting point came to 113 °C.

For `CCCCOc1cc(/C=C(\OCC)C(=O)O)ccc1OCCc1ccc(OS(=O)(=O)CCCC)cc1OC` [Example 9, (Z)-3-(4-{2-[4-(butane-1-sulfonyloxy)-2-methoxy-phenyl]-ethoxy}-3-butoxy-phenyl)-2-ethoxy-acrylic acid], the values for the Kd on PPARα and on PPARγ were 2000 nM and 8 nM, respectively.

In the case of `CCCCCOc1ccc(CCOc2ccc(/C=C(\OCC)C(=O)O)cc2OCCCC)cc1Cl` [Example 15, (Z)-3-{3-butoxy-4-[2-(3-chloro-4-pentyloxy-phenyl)-ethoxy]-phenyl}-2-ethoxy-acrylic acid], the melting point is 95 °C.

Compound `CCCCOc1cc(/C=C(\OCC)C(=O)O)ccc1OCCc1ccc(OS(=O)(=O)CCCC)c(Cl)c1` [Example 17, (Z)-3-(4-{2-[4-(butane-1-sulfonyloxy)-3-chloro-phenyl]-ethoxy}-3-butoxy-phenyl)-2-ethoxy-acrylic acid] showed a melting point of 80 °C. Also, the Kd at PPARα worked out at 60 nM. In addition, the Kd at PPARδ stood at 1000 nM. Moreover, the Kd on PPARγ was found to be 8 nM.

Take `CCCCOc1cc(/C=C(\OCC)C(=O)O)ccc1OCCc1ccc(OS(=O)(=O)CCCC)c(F)c1` [Example 13, (Z)-3-(4-{2-[4-(butane-1-sulfonyloxy)-3-fluoro-phenyl]-ethoxy}-3-butoxy-phenyl)-2-ethoxy-acrylic acid]: the melting point stood at 99 °C. Also, at PPARα, the Kd amounted to 250 nM. For the same compound, the Kd on PPARδ was found to be 2000 nM. Also, the Kd on PPARγ was 8 nM.

As for `CCCCOc1cc(/C=C(\OCC)C(=O)O)ccc1OCCc1ccc(OS(=O)(=O)CCCC)cc1` [Example 6, (Z)-3-(4-{2-[4-(butane-1-sulfonyloxy)-phenyl]-ethoxy}-3-butoxy-phenyl)-2-ethoxy-acrylic acid], the Kd at PPARα was determined as 120 nM; at PPARγ, 2 nM.

Consider `CCCCOc1cc(/C=C(\OCC)C(=O)O)ccc1CCCc1ccc(OS(=O)(=O)CCCC)c(OC)c1` [Example 3, (Z)-3-(4-{3-[4-(butane-1-sulfonyloxy)-3-methoxy-phenyl]-propyl}-3-butoxy-phenyl)-2-ethoxy-acrylic acid], for which the Kd at PPARα was 60 nM; on PPARδ, 250 nM; at PPARγ it was 15 nM.
